According to PubChem BioAssay (NCI):
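Briefly, cells in 96-well plates were exposed to five compound concentrations for 48 h, and endpoints were estimated by linear interpolation. At the GI50, growth is halved. Definition used: TGI = concentration required for complete inhibition of growth.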

Legend:
Test in all cases: NCI anticancer screen, dose series, 48 h
786-0 renal = tested on: 786-0 renal
A498 renal = tested on: A498 renal
A549 NSCLC = tested on: A549 NSCLC
ACHN renal = tested on: ACHN renal
BT-549 breast = tested on: BT-549 breast
CAKI-1 renal = tested on: CAKI-1 renal
COLO 205 colon = tested on: COLO 205 colon
DU-145 prostate = tested on: DU-145 prostate
EKVX NSCLC = tested on: EKVX NSCLC
HCC-2998 colon = tested on: HCC-2998 colon
HCT-116 colon = tested on: HCT-116 colon
HCT-15 colon = tested on: HCT-15 colon
HL-60(TB) leukemia = tested on: HL-60(TB) leukemia
HOP-62 NSCLC = tested on: HOP-62 NSCLC
HOP-92 NSCLC = tested on: HOP-92 NSCLC
HS 578T breast = tested on: HS 578T breast
HT29 colon = tested on: HT29 colon
IGROV1 ovarian = tested on: IGROV1 ovarian
KM12 colon = tested on: KM12 colon
LOX IMVI melanoma = tested on: LOX IMVI melanoma
MALME-3M melanoma = tested on: MALME-3M melanoma
MCF7 breast = tested on: MCF7 breast
MDA-MB-231 breast = tested on: MDA-MB-231 breast
MDA-MB-435 = tested on: MDA-MB-435
NCI-H226 lung = tested on: NCI-H226 lung
NCI-H23 lung = tested on: NCI-H23 lung
NCI-H460 lung = tested on: NCI-H460 lung
NCI-H522 lung = tested on: NCI-H522 lung
OVCAR-3 ovarian = tested on: OVCAR-3 ovarian
OVCAR-4 ovarian = tested on: OVCAR-4 ovarian
OVCAR-5 ovarian = tested on: OVCAR-5 ovarian
OVCAR-8 ovarian = tested on: OVCAR-8 ovarian
PC-3 prostate = tested on: PC-3 prostate
RPMI-8226 leukemia = tested on: RPMI-8226 leukemia
RXF 393 renal = tested on: RXF 393 renal
SF-268 CNS = tested on: SF-268 CNS
SF-295 CNS = tested on: SF-295 CNS
SF-539 CNS = tested on: SF-539 CNS
SK-MEL-2 melanoma = tested on: SK-MEL-2 melanoma
SK-MEL-28 melanoma = tested on: SK-MEL-28 melanoma
SK-MEL-5 melanoma = tested on: SK-MEL-5 melanoma
SK-OV-3 ovarian = tested on: SK-OV-3 ovarian
SN12C renal = tested on: SN12C renal
SNB-19 CNS = tested on: SNB-19 CNS
SNB-75 CNS = tested on: SNB-75 CNS
SW-620 colon = tested on: SW-620 colon
T-47D breast = tested on: T-47D breast
TK-10 renal = tested on: TK-10 renal
U251 CNS = tested on: U251 CNS
UACC-257 melanoma = tested on: UACC-257 melanoma
UACC-62 melanoma = tested on: UACC-62 melanoma
UO-31 renal = tested on: UO-31 renal

Molecule `CCOC(=O)c1c(NC(=O)c2ccc(C(F)(F)F)cc2)sc2c3c(ccc12)OCN(C)C3` has a GI50 (786-0 renal) of 2220 nM, a TGI (786-0 renal) of 4920 nM and a GI50 (A498 renal) of 1670 nM. For the same molecule, the TGI (A498 renal) was 3210 nM, the GI50 (A549 NSCLC) was 1790 nM and the TGI (A549 NSCLC) was 3610 nM. It also gave a GI50 (ACHN renal) of 1800 nM, a TGI (ACHN renal) of 3240 nM and a GI50 (BT-549 breast) greater than 100000 nM. For the same molecule, the TGI (BT-549 breast) was greater than 100000 nM, the GI50 (CAKI-1 renal) was 1670 nM and the TGI (CAKI-1 renal) was 3200 nM. It also gave a GI50 (COLO 205 colon) of 1780 nM, a TGI (COLO 205 colon) of 3500 nM and a GI50 (DU-145 prostate) of 1810 nM. For the same molecule, the TGI (DU-145 prostate) was 3410 nM, the GI50 (EKVX NSCLC) was 1690 nM and the TGI (EKVX NSCLC) was 3360 nM. The GI50 (HCC-2998 colon) was 1670 nM, the TGI (HCC-2998 colon) was 3150 nM and the GI50 (HCT-116 colon) was 1740 nM. The TGI (HCT-116 colon) was 3340 nM, the GI50 (HCT-15 colon) was 1740 nM and the TGI (HCT-15 colon) was 3280 nM. For the same molecule, the GI50 (HL-60(TB) leukemia) was 1690 nM, the TGI (HL-60(TB) leukemia) was 4740 nM and the GI50 (HOP-62 NSCLC) was 2000 nM. The TGI (HOP-62 NSCLC) was 4320 nM, the GI50 (HOP-92 NSCLC) was 1140 nM and the TGI (HOP-92 NSCLC) was 2680 nM. For the same molecule, the GI50 (HS 578T breast) was 1840 nM, the TGI (HS 578T breast) was 3970 nM and the GI50 (HT29 colon) was 1750 nM. For the same molecule, the TGI (HT29 colon) was 3340 nM, the GI50 (IGROV1 ovarian) was 1810 nM and the TGI (IGROV1 ovarian) was 3520 nM. It also gave a GI50 (KM12 colon) of 2010 nM, a TGI (KM12 colon) of 3770 nM and a GI50 (LOX IMVI melanoma) of 1650 nM. It also gave a TGI (LOX IMVI melanoma) of 3210 nM, a GI50 (MALME-3M melanoma) of 1830 nM and a TGI (MALME-3M melanoma) of 3510 nM. It also gave a GI50 (MCF7 breast) of 1620 nM, a TGI (MCF7 breast) of 3080 nM and a GI50 (MDA-MB-231 breast) of 1860 nM. The TGI (MDA-MB-231 breast) was 3700 nM, the GI50 (MDA-MB-435) was 1650 nM and the TGI (MDA-MB-435) was 3160 nM. It also gave a GI50 (NCI-H226 lung) of 1790 nM, a TGI (NCI-H226 lung) of 3600 nM and a GI50 (NCI-H23 lung) of 1810 nM. It also gave a TGI (NCI-H23 lung) of 3500 nM, a GI50 (NCI-H460 lung) of 1890 nM and a TGI (NCI-H460 lung) of 3550 nM. It also gave a GI50 (NCI-H522 lung) of 1720 nM, a TGI (NCI-H522 lung) of 3350 nM and a GI50 (OVCAR-3 ovarian) of 1790 nM. The TGI (OVCAR-3 ovarian) was 3330 nM, the GI50 (OVCAR-4 ovarian) was 1760 nM and the TGI (OVCAR-4 ovarian) was 3460 nM. For the same molecule, the GI50 (OVCAR-5 ovarian) was 1800 nM, the TGI (OVCAR-5 ovarian) was 3400 nM and the GI50 (OVCAR-8 ovarian) was 1860 nM. The TGI (OVCAR-8 ovarian) was 3760 nM, the GI50 (PC-3 prostate) was 1530 nM and the TGI (PC-3 prostate) was 3150 nM. For the same molecule, the GI50 (RPMI-8226 leukemia) was 1330 nM, the TGI (RPMI-8226 leukemia) was 3860 nM and the GI50 (RXF 393 renal) was 1560 nM. For the same molecule, the TGI (RXF 393 renal) was 2970 nM, the GI50 (SF-268 CNS) was 1830 nM and the TGI (SF-268 CNS) was 3660 nM. The GI50 (SF-295 CNS) was 1790 nM, the TGI (SF-295 CNS) was 3320 nM and the GI50 (SF-539 CNS) was 1750 nM. The TGI (SF-539 CNS) was 3300 nM, the GI50 (SK-MEL-2 melanoma) was 1800 nM and the TGI (SK-MEL-2 melanoma) was 3440 nM. The GI50 (SK-MEL-28 melanoma) was 1800 nM, the TGI (SK-MEL-28 melanoma) was 3280 nM and the GI50 (SK-MEL-5 melanoma) was 1810 nM. It also gave a TGI (SK-MEL-5 melanoma) of 3450 nM, a GI50 (SK-OV-3 ovarian) of 1950 nM and a TGI (SK-OV-3 ovarian) of 3770 nM. It also gave a GI50 (SN12C renal) of 1790 nM, a TGI (SN12C renal) of 3430 nM and a GI50 (SNB-19 CNS) of 1780 nM. For the same molecule, the TGI (SNB-19 CNS) was 3520 nM, the GI50 (SNB-75 CNS) was 1490 nM and the TGI (SNB-75 CNS) was 3340 nM. For the same molecule, the GI50 (SW-620 colon) was 1780 nM, the TGI (SW-620 colon) was 3420 nM and the GI50 (T-47D breast) was 1840 nM. The TGI (T-47D breast) was 3960 nM, the GI50 (TK-10 renal) was 1680 nM and the TGI (TK-10 renal) was 3130 nM. It also gave a GI50 (U251 CNS) of 1710 nM, a TGI (U251 CNS) of 3340 nM and a GI50 (UACC-257 melanoma) of 1620 nM. For the same molecule, the TGI (UACC-257 melanoma) was 3270 nM, the GI50 (UACC-62 melanoma) was 1720 nM and the TGI (UACC-62 melanoma) was 3280 nM. It also gave a GI50 (UO-31 renal) of 1550 nM and a TGI (UO-31 renal) of 2950 nM.
